Results as given in patent publication US8053585B2, “Protecting group for carboxylic acids that can be photolyzed by visible light” (Cornell Research Foundation, Inc., priority 2006, dated 2011).

What was measured:
Format in all cases: cell-based
GluR6 glutamate receptor [1] = assay: Stability in aqueous solution by whole-cell recording, cells used as glutamate detector; conditions: 2 mM solution, 24 h in the dark at −20° C., pH 7.4
Excerpt: In whole-cell current recording experiments with DECM-caged glutamate, HEK 293 cells stably transfected with cDNA encoding the GluR6 were used. In whole-cell current recording experiments with DECM-caged glycine, HEK 293 cells were transiently transfected with the cDNA of the α1-subunit of the human glycine receptor by using the Polyfect™ transfection reagent (Qiagen GmbH, D-40724, Hilden, Germany). The cDNA of the α1-subunit was kindly provided by Professor H. Betz (Max-Plank-Institute for brain Research, Frankfurt, Germany). The cells were co-transfected with cDNA encoding the green fluorescent protein (pGreen Lantern plasmid, Life Technologies, Gaitherberg, Md.) to detect transfected cells (Chalfie et al., “Green Fluorescent Protein as a Marker for Gene Expression,” Science 263:802-805 (1994), which is hereby incorporated by reference in its entirety).
The cells were used for electrophysiological experiments between 24 and 72 h after each passage. Whole-cell currents evoked by glutamate or glycine (100 μM) were recorded using the whole-cell configuration (Hamill et al., “Improved Patch-Clamp Techniques for High-Resolution Current Recording From Cells and Cell-Free Membrane Patches,” Pfluegers Arch 391:85-100 (1981), which is hereby incorporated by reference in its entirety) at room temperature, −60 mV, and pH 7.4. […]

GluR6 glutamate receptor [2] = assay: Laser-pulse photolysis of DECM-caged glutamate on HEK 293 cells; conditions: 2 mM caged compound, −60 mV, pH 7.4, 22° C.
Method: The cells were used for electrophysiological experiments between 24 and 72 h after each passage. Whole-cell currents evoked by glutamate or glycine (100 μM) were recorded using the whole-cell configuration (Hamill et al., “Improved Patch-Clamp Techniques for High-Resolution Current Recording From Cells and Cell-Free Membrane Patches,” Pfluegers Arch 391:85-100 (1981), which is hereby incorporated by reference in its entirety) at room temperature, −60 mV, and pH 7.4. The experiments using DECM-caged glutamate were carried out in the absence or presence of 2 mM DECM-caged glutamate (FIG. 5A) or 1 mM 7-N,N-diethylamino-4-hydroxymethylcoumarin (2) (FIG. 5B). Alternatively, the experiments using DECM-caged glycine were carried out in the absence or presence of 1 mM DECM-caged-glycine (FIG. 10). The solution in the recording pipet contained 120 mM CsCl, 10 mM EGTA, and 10 mM HEPES, adjusted to pH 7.4. The HEK cell bath solution contained 150 mM NaCl, 1 mM CaCl2, 10 mM HEPES, pH 7.4. The resistance of the recording electrode filled with buffer solution was typically 3-5 MΩ and the series resistance was 5-6 MΩ. […]
The laser light produced by the Exalite (Exiton Inc., Dayton, Ohio) 404 dye (≧400 nm) was coupled into an optical fiber (300 μm internal diameter), which delivered the light to the cell. […] Data were analyzed with Microcal Origin3.5 software (Microcal, Northampton, Mass.).

[3] = target: T1, α1-subunit of the human glycine receptor (Homo sapiens, UniProt P23415); assay: Flash lamp photolysis of DECM-caged glycine on HEK 293 cells; conditions: 1 mM caged compound
T1 construct: expressed in transfected cells; host or cells: HEK 293 cells, transiently transfected (Polyfect), co-transfected with GFP plasmid as marker; cDNA from Prof; H. Betz
T1 sequence (P23415 29-457): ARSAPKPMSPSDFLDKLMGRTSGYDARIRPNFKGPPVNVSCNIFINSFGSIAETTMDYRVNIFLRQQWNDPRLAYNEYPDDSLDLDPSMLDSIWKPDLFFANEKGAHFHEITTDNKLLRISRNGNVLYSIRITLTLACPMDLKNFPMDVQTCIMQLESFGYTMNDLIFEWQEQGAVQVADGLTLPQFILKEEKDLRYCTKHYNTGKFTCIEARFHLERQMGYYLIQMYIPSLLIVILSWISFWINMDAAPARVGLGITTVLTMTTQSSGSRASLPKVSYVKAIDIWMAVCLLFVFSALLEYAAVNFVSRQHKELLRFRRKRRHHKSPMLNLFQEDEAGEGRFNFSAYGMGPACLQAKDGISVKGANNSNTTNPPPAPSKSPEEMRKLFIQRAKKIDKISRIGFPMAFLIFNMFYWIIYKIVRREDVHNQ
Method: The cells were used for electrophysiological experiments between 24 and 72 h after each passage. Whole-cell currents evoked by glutamate or glycine (100 μM) were recorded using the whole-cell configuration (Hamill et al., “Improved Patch-Clamp Techniques for High-Resolution Current Recording From Cells and Cell-Free Membrane Patches,” Pfluegers Arch 391:85-100 (1981), which is hereby incorporated by reference in its entirety) at room temperature, −60 mV, and pH 7.4. The experiments using DECM-caged glutamate were carried out in the absence or presence of 2 mM DECM-caged glutamate (FIG. 5A) or 1 mM 7-N,N-diethylamino-4-hydroxymethylcoumarin (2) (FIG. 5B). Alternatively, the experiments using DECM-caged glycine were carried out in the absence or presence of 1 mM DECM-caged-glycine (FIG. 10). The solution in the recording pipet contained 120 mM CsCl, 10 mM EGTA, and 10 mM HEPES, adjusted to pH 7.4. The HEK cell bath solution contained 150 mM NaCl, 1 mM CaCl2, 10 mM HEPES, pH 7.4. The resistance of the recording electrode filled with buffer solution was typically 3-5 MΩ and the series resistance was 5-6 MΩ. The cells were held at a constant transmembrane voltage of −60 mV and room temperature (22° C.). Whole-cell currents were amplified by using an Axopatch 200B (Axon Instruments, Foster City, Calif.) amplifier and filtered at 1-5 kHz by using a […], low-pass, Bessel (Dagan Corporation, Minneapolis, Minn.) filter incorporated in the amplifier. The filtered signal was digitized by a Digidata 1322A (Axon Instruments, Union City, Calif.) or a Labmaster DMA 100 KHz digitizing board (Scientific Solutions, Mentor, Ohio) controlled by pCLAMP9 software (Axon Instruments).
The light produced by the Rapp (Rapp OptoElectronics, Hamburg, Germany) xenon flash lamp (SP-20) was coupled into an optical fiber (600 μm internal diameter), which delivered the light to the cell. The concentration of DECM-caged-glycine used was 1 mM for the results in FIG. 11. Typical light energies were 150-250 μJ per pulse. […] Data were analyzed with Microcal Origin3.5 software (Microcal, Northampton, Mass.).

SMILES	free glutamate in solution of caged compound (GluR6 glutamate receptor [1])	I∞, current at t=∞ (GluR6 glutamate receptor [2])	kobs, apparent pseudo-first-order rate constant of the current rise (GluR6 glutamate receptor [2])	concentration of liberated glycine ([3]; flash-lamp light pulse, 250 μJ)	I∞, current at t=∞ ([3]; −60 mV, pH 7.4, 22° C.)	kobs, apparent pseudo first-order rate constant of the current rise ([3]; −60 mV, pH 7.4, 22° C.)
CCN(CC)c1ccc2c(COC(=O)CCC(N)C(=O)O)cc(=O)oc2c1 (stereo not drawn) [DECM-caged glutamate, (7-N,N-Diethylaminocoumarin-4-yl)-methyl-glutamate-trifluoroacetate]	no free glutamate was detected	−1590 pA	765 ± 14 s⁻¹	–	–	–
CCN(CC)c1ccc2c(COC(=O)CN)cc(=O)oc2c1 [DECM-caged glycine, (7-N,N-Diethylaminocoumarin-4-yl)-methyl-glycine-trifluoroacetate]	–	–	–	60 µM	−4950±57 pA	125 ± 16 s⁻¹
